From publication PMC6030159 (Scientific Reports, 2018)
Entries after “also recorded” stand apart in the source; their conditions may differ.

Columns and labels:
MYC bHLHZip = biological target: T1, MYC bHLHZip (Homo sapiens, UniProt P01106); assay: MST direct binding to MYC
T1 construct: 6xHis (N); made in house; host or cells: E. coli BL21 (DE3), pET28a; purified in denaturing conditions
Experimental: (§1) To determine whether MYCMI-6 binds directly to MYC (or MAX), MST and SPR were applied. The bHLHZip domains of MYC or MAX, respectively (Suppl. Fig. S1C), were titrated and mixed with 3 μM of MYCMI-6.
(§2) MST was carried out on a Monolith NT.115 with blue/green filters, kindly provided by Luca Jovine, Karolinska Institutet Huddinge, according to manufacturer’s protocol (NanoTemper). MYCbHLHZip, MAXbHLHZip, BSA and BCL-XL recombinant proteins and compounds were diluted and titrated in PBS supplemented with 0.05% Triton-X-114 or 0.05% Tween-20. Titration of molecules was carried out in 16 PCR tubes into which a fixed concentration of fluorescent molecule was added. The mixture was applied to capillaries (standard treated, NanoTemper), and scanned in the Monolith NT.115 to measure initial fluorescence of molecule. MST was induced and fluorescence was measured during 40 seconds. Double measurements were carried out (MST power of 20% and 40%, or 40% and 60%) for each sample. Delta fluorescence or relative fluorescence of fluorescent molecule normalized to control vehicle was plotted against titrated molecule concentration. The protein labeling kit GREEN-NHS (NanoTemper) was used to label primary amines of proteins according to manufacture’s protocol.

MAX bHLHZip [1] = biological target: T2, MAX bHLHZip (Homo sapiens, UniProt P61244); assay: MST direct binding to MAX; details: 3 μM MYCMI-6, MAX titrated
Experimental: as §1, §2

BCL-XL = system: T3, BCL-XL; assay: MST binding to BCL-XL; details: 3 µM MYCMI-6, BCL-XL titrated up to 10 μM
T3 construct: purchased Abcam
Experimental: as §2, with “manufacturer's” for “manufacturer’s”, “MYCbHLHZip, MAXbHLHZip, BSA and BCL-XL recombinant proteins and compounds were diluted and titrated in PBS supplemented with 0.05% Triton-X-114 or 0.05% Tween-20.” left out, “manufacture's” for “manufacture’s”, “protocol. page 5: Supplementary Figure Legends Supplemental Figure S1. Schematic presentations of MYC and MAX protein constructs. […] The cells were reseeded and treated with vehicle or 25 μM of each compound, after which fluorescence was measured 24 hours post-treatment and the YFP/CFP ratio calculated and normalized to DMSO-treated cells. […] (12.5 μM) and analyzed as described in C). […]” for “protocol.”

[2] = system: T4, bovine serum albumin (BSA); assay: MST binding to BSA; details: BSA titrated
T4 construct: purchased NanoTemper (included in the MST kit)
Description: Data are shown as mean ± standard deviation of 5 biological repeats.

MAX bHLHZip [3] = biological target: T2, MAX bHLHZip; assay: SPR binding to MAX
Experimental: The MYC SPR assay was carried out as described above with MYCbHLHZip immobilized to a level of 800–1000 RU. For kinetic binding experiments, a Langmuir 1:1 binding event was applied using the Biacore T200 Evaluation Software 2.0 (GE Healthcare) to determine association (ka) and dissociation (kd) constants of the compound and to calculate affinity (KD) by the formula; KD = kd/ka. Binding responses from equilibrium binding experiments were plotted against compound concentration and KD values were determined at 50% of the theoretical Rmax with the formula Rmax = (MW analyte/MW ligand) × immobilized ligand level on the chip (RU) × stoichiometry (1:1). Same coupling method described above was used to immobilize the control proteins. MAX was immobilized to approximately 2000 RU, MAD to 600 RU, BSA to 1000 RU, p53 to 3000 RU and BCL-XL, to 500 RU.

MYC/MYCN target genes = assay: RT-qPCR of MYC/MYCN target genes in Kelly cells; format: cell-based; details: 2.5 μM, 24 hours
Experimental: These assays were performed essentially as described in[67],[68]. For further information on immunohistochemistry, and on primers and antibodies, see Supplementary Information.

[4] = system: HOmyc3 (MYC reconstituted HO15.19) Rat1 fibroblasts; assay: WST-1 growth assay, HOmyc3 (MYC reconstituted) Rat1 fibroblasts; format: cell-based, rat
Experimental: Cell proliferation assays. Cell growth and viability was estimated in triplicates with WST-1
(Roche) or Resazurin sodium salt (Sigma-Aldrich) assays in medium at 37°C and 5% CO 2 for
2 hours after which absorbance or fluorescence, respectively, was measured with an Omega
Fluostar (BMG Labtech) in a 96 well plate format. […]
0.7% agarose. […]

T2 sequence (P61244 23-102 limits assumed): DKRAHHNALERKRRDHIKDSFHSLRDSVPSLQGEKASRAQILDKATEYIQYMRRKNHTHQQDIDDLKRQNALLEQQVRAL
T1 sequence (P01106 367-447 limits assumed): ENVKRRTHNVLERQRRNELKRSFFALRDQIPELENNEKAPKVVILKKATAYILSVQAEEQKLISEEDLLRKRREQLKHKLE

**Q.** What does the source list for `CCOc1ccc2nc3cc(/N=N/c4ccc(N)nc4N)ccc3c(N)c2c1` [MYCMI-6]?
**A.** binding to MYC bHLHZip (MST) (MYC bHLHZip; 3 μM MYCMI-6, changes at 1–15 μM of MYC): binding of MYCMI-6 to MYC; concentration showing relative changes in thermophoresis of labeled MYC (reverse MST) (MYC bHLHZip; labeled MYC approximately 200 nM, MYCMI-6 titrated): above 100 nM; binding to MAX bHLHZip (MST) (MAX bHLHZip [1]): no obvious changes; also recorded: did not bind to MAX; binding to BCL-XL (MST) (BCL-XL): did not bind; also recorded: did not observe any binding; binding to BSA (MST) [2]: did not bind; binding to MAX (SPR) (MAX bHLHZip [3]): negligible; also recorded: did not bind to MAX; expression of MYC/MYCN target genes (MYC/MYCN target genes): significantly inhibited; growth of MYC reconstituted (HOmyc3) cells [4]: strongly inhibited growth
